Tested on: humanized mouse model of GvHD
Assay: Ex vivo-treated hPBMCs transferred into NSG mice, assessment of GvHD
Type: in vivo
Method: Animal protocols were approved by the Institutional Animal Care and use Committee of the University of Massachusetts Amherst. […] 10×10^6 treated hPBMCs in 150 μl of PBS were injected into mice via the tail vein.
Clinical score was generated by adding grades for five criteria.
IL-2 and IFNγ cytokine levels in plasma collected from NSG mice were determined by using human IFNγ and IL-2 Flex Sets (BD Biosciences). Data were acquired using a Fortessa 5 Laser Flow Cytometer (BD Biosciences) and analyzed using FCAP array software (Soft Flow Inc.).

`CC(=O)c1c(O)c(C)c(O)c(Cc2c(O)c3c(c(C(=O)/C=C/c4ccccc4)c2O)OC(C)(C)C=C3)c1O` [rottlerin, Rottlerin] was tested, and the “mice without overt signs of disease” value (hPBMCs pre-treated, no human cells detected on day +70) was “Two of three” and the “toxicity to hPBMCs” value (pre-treated hPBMCs) was “cytotoxic effects on hPBMCs”.

Source: patent publication US11702632B2, “Ex vivo method of generating super regulatory T cells for the prevention of autoimmune disease” (University of Massachusetts, priority 2017, dated 2023)
